From patent publication US11583538B2, “Substituted pyrrolo[1,2-a]pyrazines and pyrrolo[1,2-a][1,4]diazepines as TREX1 inhibitors” (Venenum Biodesign, LLC, priority 2019, dated 2023)

These compounds were tested against human TREX1 (Homo sapiens (Human), UniProt Q9NSU2) (assay: TREX1 Exonuclease Assay).
Format: biochemical
Method: For human TREX1, the nucleotide sequence of the gene construct was codon optimized for expression in the bacterial host. The sequence was incorporated into the pMAL-c5e vector (NEB) downstream of a solubility-promoting MBP (maltose binding protein) fusion partner. The fusion protein product was expressed in E. coli strain BL21 (DE3) (Millipore) and purified in a series of chromatographic steps. Initial steps were conducted using a dextrin sepharose affinity column followed by a Q-sepharose ion exchange column (both GE Healthcare). After the second column the MBP partner was removed by incubation with enterokinase (NEB). Further purification was carried out with the second application of a Q-sepharose column followed by a Superdex 75 (GE Healthcare) size exclusion column. Finally, a heparin sepharose column (GE Healthcare) was applied to remove contaminating nucleotides.
To evaluate the effect of compounds on TREX1 activity, test compounds were serially diluted (11-point, 3-fold) from 10 mM stock solutions and delivered to 384-well low-volume assay plates in 80 nL DMSO using an acoustic dispenser. Next, 4 μL of human TREX1 (0.5 nM), or murine TREX1 (1 nM), diluted in assay buffer (20 mM Tris pH 7.5, 5 mM MgCl2, 100 μg/mL BSA, 0.002% Triton X-100, 2 mM DTT), was added to the assay plate. After incubating for 30 minutes, 4 μL of labeled DNA oligonucleotide (500 nM) in assay buffer was added to initiate TREX1 exonuclease activity. The reaction was allowed to proceed for 45 minutes at room temperature prior to the addition of 4 μL of 150 mM EDTA to halt TREX1 activity.

Chain of human TREX1 (Q9NSU2 whole entry): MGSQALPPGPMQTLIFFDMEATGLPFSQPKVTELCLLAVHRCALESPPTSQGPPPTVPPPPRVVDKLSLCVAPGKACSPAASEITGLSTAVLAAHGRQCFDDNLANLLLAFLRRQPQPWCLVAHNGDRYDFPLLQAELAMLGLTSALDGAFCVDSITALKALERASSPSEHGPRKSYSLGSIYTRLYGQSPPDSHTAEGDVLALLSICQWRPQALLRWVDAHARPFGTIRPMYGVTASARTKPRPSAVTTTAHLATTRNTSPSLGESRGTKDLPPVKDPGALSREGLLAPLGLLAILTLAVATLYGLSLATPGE

`COC(=O)CC[C@H](C(=O)NCc1ccc(Cl)c(Cl)c1)N1CCC(CCc2ccccc2)N2C[C@H](N)C[C@H]2C1=O` (stereo partly drawn) [Example 104, (4R)-methyl 4-((8R,9aS)-8-amino-1-oxo-5-phenethylhexahydro-1H-pyrrolo[1,2-a][1,4]diazepin-2(3H)-yl)-5-((3,4-dichlorobenzyl)amino)-5-oxopentanoate] and `CCOC(=O)CC[C@H](C(=O)NCc1ccc(Cl)c(Cl)c1)N1CCC(CCc2ccccc2)N2C[C@H](N)C[C@H]2C1=O` (stereo partly drawn) [Example 89, (4R)-ethyl 4-((8R,9aS)-8-amino-1-oxo-5-phenethylhexahydro-1H-pyrrolo[1,2-a][1,4]diazepin-2(3H)-yl)-5-((3,4-dichlorobenzyl)amino)-5-oxopentanoate] cannot be ordered by IC50: under 1 µM for the first, under 1 µM for the second.

First: CC(C)C[C@H](C(=O)NCc1ccc(C(F)(F)F)c(F)c1)N1CCC(CCc2ccccc2)N2C[C@H](N)C[C@H]2C1=O (stereo partly drawn) [Example 56]
Second: CC(C)C[C@H](C(=O)NCc1cccc(Cl)c1)N1CCC(CCc2ccccc2)N2C[C@H](N)C[C@H]2C1=O (stereo partly drawn) [Example 43]
The IC50 of the first is lower: under 1 µM for the first, 1 to 9.99 µM for the second.

`Cc1nnc(CC[C@H](C(=O)NCc2ccc(Cl)c(Cl)c2F)N2CCC(CCc3ccccc3)N3C[C@H](N)C[C@H]3C2=O)[nH]1` (stereo partly drawn) [Example 140] and `NC(=O)CC[C@H](C(=O)NCc1ccc(Cl)c(Cl)c1F)N1CCC(CCc2ccccc2)N2C[C@H](N)C[C@H]2C1=O` (stereo partly drawn) [Example 107] cannot be ordered by IC50: under 1 µM for the first, under 1 µM for the second.

`N[C@@H]1C[C@H]2C(=O)N([C@H](CCC(=O)O)C(=O)NCc3cc(Cl)c(Cl)cn3)CCC(CCc3ccccc3)N2C1` (stereo partly drawn) [Example 28] and `CCOC(=O)CC[C@H](C(=O)NCc1cc(Cl)c(Cl)cn1)N1CCC(CCc2ccccc2)N2C[C@H](N)C[C@H]2C1=O` (stereo partly drawn) [Example 99] cannot be ordered by IC50: under 1 µM for the first, under 1 µM for the second.

`N[C@@H]1C[C@H]2C(=O)N([C@H](CCC(=O)O)C(=O)NCc3ccc(Cl)c(Cl)c3)CCC(COc3cnccn3)N2C1` (stereo partly drawn) [Example 80] and `Cc1ccc(OCC2CCN([C@H](CCC(=O)O)C(=O)NCc3ccc(Cl)c(Cl)c3)C(=O)[C@@H]3C[C@@H](N)CN23)cc1` (stereo partly drawn) [Example 73] fall in the same range of IC50: 1 to 9.99 µM for the first, 1 to 9.99 µM for the second.

First: N#CC[C@H](C(=O)N1CCc2c(ccc(Cl)c2Cl)C1)N1CCC(CCc2ccccc2)N2C[C@H](N)C[C@H]2C1=O (stereo partly drawn) [Example 67]
Second: N#CCC[C@H](C(=O)NCc1ccc(Cl)c(Cl)c1F)N1CCC(CCc2ccccc2)N2C[C@H](N)C[C@H]2C1=O (stereo partly drawn) [Example 109]
The IC50 of the first is higher: 1 to 9.99 µM for the first, under 1 µM for the second. The second is the more potent here.

`N[C@@H]1C[C@H]2C(=O)N([C@H](CCC(=O)O)C(=O)NCc3cc(Cl)c(Cl)cc3F)CCC(CCc3ccccc3)N2C1` (stereo partly drawn) [Example 31] and `COc1cc(Cl)c(Cl)cc1CNC(=O)[C@@H](CCC(=O)O)N1CCC(CCc2ccccc2)N2C[C@H](N)C[C@H]2C1=O` (stereo partly drawn) [Example 21] cannot be ordered by IC50: under 1 µM for the first, under 1 µM for the second.

First: CC(C)C[C@H](C(=O)NS(=O)(=O)c1ccc(Cl)c(Cl)c1)N1CCC(CCc2ccccc2)N2C[C@H](N)C[C@H]2C1=O (stereo partly drawn) [Example 62]
Second: CC(C)C[C@H](C(=O)NS(=O)(=O)c1ccccc1)N1CCC(CCc2ccccc2)N2C[C@H](N)C[C@H]2C1=O (stereo partly drawn) [Example 61]
The IC50 of the first is higher: 1 to 9.99 µM for the first, under 1 µM for the second.

First: N[C@@H]1C[C@H]2C(=O)N([C@H]3CCCN(C(=O)c4ccc(Cl)c(Cl)c4)C3)CCC(CCc3ccccc3)N2C1 (stereo partly drawn) [Example 87]
Second: N[C@@H]1C[C@H]2C(=O)N([C@H]3CCCN(S(=O)(=O)c4ccc(Cl)c(Cl)c4)C3)CCC(CCc3ccccc3)N2C1 (stereo partly drawn) [Example 86]
The IC50 of the first is higher: 10 to 100 µM for the first, 1 to 9.99 µM for the second. The second is the more potent here.

`N[C@@H]1C[C@H]2C(=O)N([C@H](CCC(=O)O)C(=O)NCc3ccc(Cl)c(Cl)n3)CCC(CCc3ccccc3)N2C1` (stereo partly drawn) [Example 25] and `NC(=O)C[C@H](C(=O)NCc1ccc(Cl)c(Cl)n1)N1CCC(CCc2ccccc2)N2C[C@H](N)C[C@H]2C1=O` (stereo partly drawn) [Example 36] cannot be ordered by IC50: under 1 µM for the first, under 1 µM for the second.

`CC(C)Oc1c(CNC(=O)[C@@H](CCc2nnn[nH]2)N2CCC(CCc3ccccc3)N3C[C@H](N)C[C@H]3C2=O)ccc(Cl)c1Cl` (stereo partly drawn) [Example 144] and `COc1c(CNC(=O)[C@@H](CCC#N)N2CCC(CCc3ccccc3)N3C[C@H](N)C[C@H]3C2=O)ccc(Cl)c1Cl` (stereo partly drawn) [Example 108] cannot be ordered by IC50: under 1 µM for the first, under 1 µM for the second.

`N[C@@H]1C[C@H]2C(=O)N([C@H](CCC(=O)O)C(=O)N3CCC[C@H]3c3ccc(Cl)c(Cl)c3)CCC(CCc3ccccc3)N2C1` (stereo partly drawn) [Example 27] and `N[C@@H]1C[C@H]2C(=O)N([C@H](CCC(=O)O)C(=O)N3CCOC[C@H]3c3ccc(Cl)c(Cl)c3)CCC(CCc3ccccc3)N2C1` (stereo partly drawn) [Example 32] cannot be ordered by IC50: under 1 µM for the first, under 1 µM for the second.

`CCOC(=O)CC[C@H](C(=O)N1CCC[C@H]1c1ccc(Cl)c(Cl)c1)N1CCC(CCc2ccccc2)N2C[C@H](N)C[C@H]2C1=O` (stereo partly drawn) [Example 98] and `CONC(=O)CC[C@H](C(=O)NCc1ccc(Cl)c(Cl)c1)N1CCC(CCc2ccccc2)N2C[C@H](N)C[C@H]2C1=O` (stereo partly drawn) [Example 117] cannot be ordered by IC50: under 1 µM for the first, under 1 µM for the second.

First: CC(C)C[C@H](C(=O)NCc1ccc(Cl)cc1Cl)N1CCC(CCc2ccccc2)N2C[C@H](N)C[C@H]2C1=O (stereo partly drawn) [Example 48]
Second: CC(C)C[C@H](C(=O)N(C)Cc1ccc(Cl)c(Cl)c1)N1CCC(CCc2ccccc2)N2C[C@H](N)C[C@H]2C1=O (stereo partly drawn) [Example 60]
The IC50 of the first is higher: 1 to 9.99 µM for the first, under 1 µM for the second. The second is the more potent here.

`CNC(=O)CC[C@H](C(=O)NCc1ccc(Cl)c(Cl)c1)N1CCC(CCc2ccccc2)N2C[C@H](N)C[C@H]2C1=O` (stereo partly drawn) [Example 136] and `CS(=O)(=O)NCC[C@H](C(=O)NCc1ccc(Cl)c(Cl)c1)N1CCC(CCc2ccccc2)N2C[C@H](N)C[C@H]2C1=O` (stereo partly drawn) [Example 132] cannot be ordered by IC50: under 1 µM for the first, under 1 µM for the second.

`N[C@@H]1C[C@H]2C(=O)N([C@H](CCNS(=O)(=O)C3CC3)C(=O)NCc3ccc(Cl)c(Cl)c3)CCC(CCc3ccccc3)N2C1` (stereo partly drawn) [Example 133] and `N[C@@H]1C[C@H]2C(=O)N([C@H](CCC(=O)O)C(=O)NCc3ccc(Cl)c(C(F)(F)F)c3)CCC(CCc3ccccc3)N2C1` (stereo partly drawn) [Example 146] cannot be ordered by IC50: under 1 µM for the first, under 1 µM for the second.

Compared with `N#CC[C@H](C(=O)N1CCOC[C@@H]1c1ccccc1)N1CCC(CCc2ccccc2)N2C[C@H](N)C[C@H]2C1=O` (stereo partly drawn) [Example 68], `N#CC[C@H](C(=O)N1CCOC[C@H]1c1ccccc1)N1CCC(CCc2ccccc2)N2C[C@H](N)C[C@H]2C1=O` (stereo partly drawn) [Example 69] is lower in IC50: 10 to 100 µM for the first, 1 to 9.99 µM for the second.

First: COc1ccc(OCC2CCN([C@H](CCC(=O)O)C(=O)NCc3ccc(Cl)c(Cl)c3)C(=O)[C@@H]3C[C@@H](N)CN23)cc1 (stereo partly drawn) [Example 72, (4R)-4-((8R,9aS)-8-amino-5-((4-methoxyphenoxy)methyl)-1-oxohexahydro-1H-pyrrolo[1,2-a][1,4]diazepin-2(3H)-yl)-5-((3,4-dichlorobenzyl)amino)-5-oxopentanoic Acid]
Second: N[C@@H]1C[C@H]2C(=O)N([C@H](CCC(=O)NO)C(=O)NCc3ccc(Cl)c(Cl)c3)CCC(COc3ccc(F)cc3)N2C1 (stereo partly drawn) [Example 115]
The IC50 of the first is higher: 1 to 9.99 µM for the first, under 1 µM for the second.
